Measured values from ChEMBL document CHEMBL1201862, “PubChem BioAssay data set” (2004).
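Briefly, cells in 96-well plates were exposed to five compound concentrations for 48 h, and endpoints were estimated by linear interpolation. The concentration for 50% growth inhibition is given as GI50.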 Activity calls are given as the source filed them. Cut-off read from the data, not from the text of the source: active = GI50 up to about 1.1 µM and inactive = higher.

Key:
Assay in all cases: DTP human tumour cell line panel, 48 h
[1] = test system: IGROV-1
[2] = test system: NCI/ADR-RES
[3] = test system: CAKI-1
[4] = test system: SR
[5] = test system: LOX IMVI
[6] = test system: HOP-62
[7] = test system: ACHN
[8] = test system: SF-295
[9] = test system: HL-60
[10] = test system: MDA-MB-231
[11] = test system: OVCAR-8
[12] = test system: HCC 2998
[13] = test system: UO-31
[14] = test system: SK-OV-3
[15] = test system: MDA-MB-435
[16] = test system: A498
[17] = test system: SK-MEL-28
[18] = test system: KM12
[19] = test system: OVCAR-3
[20] = test system: HOP-92

Measured: GI50

C=C[C@@]1(O)CCCC[C@@H]1CC(Sc1ccccc1)Sc1ccccc1
inactive: [1] 14.9 µM | [2] 19.8 µM | [3] 14.8 µM | [4] 37.1 µM | [5] 19.6 µM | [6] 16 µM | [7] 67.5 µM | [8] 14.7 µM | [9] 49.8 µM | [10] 17.1 µM | [11] 17.9 µM | [12] 13 µM | [13] 17.2 µM | [14] 16.4 µM | [15] 16.3 µM | [16] 24.4 µM | [17] 25.4 µM | [18] 16.9 µM

CC1CCCN(CC(O)CN2CCCc3ccccc32)C1 (configuration not stated)
inactive: [1] > 100 µM | [2] > 100 µM | [3] > 100 µM | [4] > 100 µM | [5] > 100 µM | [6] > 100 µM | [7] > 100 µM | [8] > 100 µM | [9] 8.02 µM | [10] > 100 µM | [11] > 100 µM | [19] > 100 µM | [13] 76 µM | [14] > 100 µM | [15] > 100 µM | [16] > 100 µM | [17] > 100 µM | [18] > 100 µM

Cn1c(SCc2ccc(F)cc2)nnc1C12CC3CC(CC(C3)C1)C2
inactive: [1] 12.7 µM | [2] 28.9 µM | [3] > 100 µM | [4] 24.2 µM | [5] 22.2 µM | [6] 47.3 µM | [7] 33.5 µM | [8] 50.8 µM | [9] 11.1 µM | [10] 20.1 µM | [11] 31.8 µM | [20] 25 µM | [19] 29.4 µM | [12] 39.2 µM | [13] 34.4 µM | [14] 52.1 µM | [15] 22.5 µM | [16] 11 µM | [17] 24.3 µM

CCOC(=O)c1c(N2CCCC2)[nH]c(=O)c(C(c2ccc(N(C)C)cc2)c2c(O)c(C(=O)OCC)c(N3CCCC3)[nH]c2=O)c1O
inactive: [2] > 100 µM | [3] > 100 µM | [4] > 100 µM | [5] > 100 µM | [6] > 100 µM | [7] > 100 µM | [8] > 100 µM | [10] 82.2 µM | [11] > 100 µM | [20] > 100 µM | [19] > 100 µM | [12] > 100 µM | [13] > 100 µM | [14] > 100 µM | [15] > 100 µM | [16] > 100 µM | [17] > 100 µM | [18] > 100 µM

COc1ccc(C2(O)C(S(=O)(=O)c3ccc(C)cc3)=Cc3ccc(OC)cc32)cc1 (configuration not stated)
inactive: [1] > 100 µM | [2] > 100 µM | [4] > 100 µM | [5] > 100 µM | [6] 21.2 µM | [7] 37.4 µM | [8] 28.2 µM | [9] 22 µM | [10] > 100 µM | [11] 44.3 µM | [12] > 100 µM | [14] 35.6 µM | [15] > 100 µM | [16] 44.5 µM | [17] 32.7 µM | [18] > 100 µM

NC(=O)C(=CNC(=S)Nc1cccc(C(F)(F)F)c1)C(N)=O
inactive: [2] > 100 µM | [3] 28.4 µM | [4] > 100 µM | [5] > 100 µM | [6] > 100 µM | [7] > 100 µM | [8] > 100 µM | [9] > 100 µM | [10] > 100 µM | [11] > 100 µM | [20] > 100 µM | [19] > 100 µM | [12] > 100 µM | [13] > 100 µM | [14] > 100 µM | [15] > 100 µM | [16] > 100 µM | [17] > 100 µM | [18] > 100 µM

Sc1nnc(C23CC4CC(CC(C4)C2)C3)n1-c1ccc(Cl)cc1
inactive: [1] 8.75 µM | [2] 15.5 µM | [3] 1.96 µM | [4] 3.07 µM | [5] 4.54 µM | [6] 13 µM | [7] 15.4 µM | [8] 11.1 µM | [9] 2.77 µM | [10] 21.4 µM | [11] 15.8 µM | [19] 10.8 µM | [12] 13.7 µM | [13] 13.7 µM | [14] 20 µM | [15] 12.9 µM | [16] 19.1 µM | [17] 11.9 µM | [18] 14.6 µM

O=[N+]([O-])c1ccc2c(/N=N/c3ccc4ccccc4c3O)c(O)cc(S(=O)(=O)O)c2c1
inactive: [1] 8.65 µM | [2] 11.1 µM | [3] 12.6 µM | [4] > 29.3 µM | [5] 6.65 µM | [6] 24.9 µM | [7] 7.13 µM | [8] 32 µM | [9] 9.06 µM | [10] 35 µM | [11] 7.41 µM | [20] 21.6 µM | [19] 4.89 µM | [12] 39.5 µM | [13] 5.78 µM | [14] 18.7 µM | [15] 16.7 µM | [16] 35.3 µM | [17] 12 µM | [18] 31.8 µM
